Literature values, collected in US20250243467A1, “BONE MARROW ORGANOIDS PRODUCED FROM INDUCED PLURIPOTENT STEM CELLS AND USES OF THESE ORGANOIDS” (PRISM INGENUITY GMBH, priority 2022, published 2025).

Legend:
[1] = biological target: ALK3 (Homo sapiens, UniProt P36894)
[2] = biological target: ALK2 (Homo sapiens, UniProt Q04771)
[3] = biological target: T1, ALK7 (Homo sapiens, UniProt Q8NER5); conditions: competing for the ATP binding site
T1 sequence (Q8NER5 21-493): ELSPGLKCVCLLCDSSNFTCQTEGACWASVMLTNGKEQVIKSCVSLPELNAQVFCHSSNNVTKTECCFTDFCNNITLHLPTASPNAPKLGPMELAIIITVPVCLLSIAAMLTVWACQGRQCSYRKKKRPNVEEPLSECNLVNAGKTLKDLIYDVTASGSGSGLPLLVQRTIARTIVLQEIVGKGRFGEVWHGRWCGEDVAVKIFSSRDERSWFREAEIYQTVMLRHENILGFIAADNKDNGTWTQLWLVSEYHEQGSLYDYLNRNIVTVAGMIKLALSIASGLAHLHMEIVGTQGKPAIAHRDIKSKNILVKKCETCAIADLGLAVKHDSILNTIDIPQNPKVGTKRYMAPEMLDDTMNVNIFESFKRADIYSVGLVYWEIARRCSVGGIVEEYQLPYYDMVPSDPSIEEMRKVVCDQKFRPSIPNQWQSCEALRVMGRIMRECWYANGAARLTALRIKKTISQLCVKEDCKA

[4] = biological target: ALK6 (Homo sapiens, UniProt O00238)
Sequence of ALK6 (O00238 14-502): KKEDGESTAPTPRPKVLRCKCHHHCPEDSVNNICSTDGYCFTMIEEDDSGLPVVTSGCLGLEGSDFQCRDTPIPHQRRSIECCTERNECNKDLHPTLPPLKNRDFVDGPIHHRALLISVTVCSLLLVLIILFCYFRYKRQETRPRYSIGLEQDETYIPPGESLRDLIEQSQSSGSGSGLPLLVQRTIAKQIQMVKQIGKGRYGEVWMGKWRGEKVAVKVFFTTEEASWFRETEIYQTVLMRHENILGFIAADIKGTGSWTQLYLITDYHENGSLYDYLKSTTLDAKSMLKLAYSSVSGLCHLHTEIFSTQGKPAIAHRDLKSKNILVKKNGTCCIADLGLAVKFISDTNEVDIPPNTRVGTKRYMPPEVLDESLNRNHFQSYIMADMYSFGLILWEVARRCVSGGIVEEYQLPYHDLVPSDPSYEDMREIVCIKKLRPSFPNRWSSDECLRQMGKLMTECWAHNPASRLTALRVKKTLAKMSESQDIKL

Sequence of ALK2 (Q04771 21-509, species assumed): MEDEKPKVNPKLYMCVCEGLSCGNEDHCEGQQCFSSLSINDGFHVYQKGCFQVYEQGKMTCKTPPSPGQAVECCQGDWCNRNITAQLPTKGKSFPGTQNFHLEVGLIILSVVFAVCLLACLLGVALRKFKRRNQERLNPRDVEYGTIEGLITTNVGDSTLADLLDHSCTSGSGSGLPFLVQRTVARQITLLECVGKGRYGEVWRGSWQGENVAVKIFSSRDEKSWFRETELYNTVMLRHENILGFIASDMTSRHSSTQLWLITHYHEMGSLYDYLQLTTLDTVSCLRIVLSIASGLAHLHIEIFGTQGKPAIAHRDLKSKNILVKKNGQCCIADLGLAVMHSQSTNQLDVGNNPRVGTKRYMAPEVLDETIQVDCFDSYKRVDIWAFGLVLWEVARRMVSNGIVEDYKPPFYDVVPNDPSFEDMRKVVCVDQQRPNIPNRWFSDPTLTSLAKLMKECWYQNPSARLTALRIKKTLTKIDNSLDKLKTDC
Sequence of ALK3 (P36894 24-532, species assumed): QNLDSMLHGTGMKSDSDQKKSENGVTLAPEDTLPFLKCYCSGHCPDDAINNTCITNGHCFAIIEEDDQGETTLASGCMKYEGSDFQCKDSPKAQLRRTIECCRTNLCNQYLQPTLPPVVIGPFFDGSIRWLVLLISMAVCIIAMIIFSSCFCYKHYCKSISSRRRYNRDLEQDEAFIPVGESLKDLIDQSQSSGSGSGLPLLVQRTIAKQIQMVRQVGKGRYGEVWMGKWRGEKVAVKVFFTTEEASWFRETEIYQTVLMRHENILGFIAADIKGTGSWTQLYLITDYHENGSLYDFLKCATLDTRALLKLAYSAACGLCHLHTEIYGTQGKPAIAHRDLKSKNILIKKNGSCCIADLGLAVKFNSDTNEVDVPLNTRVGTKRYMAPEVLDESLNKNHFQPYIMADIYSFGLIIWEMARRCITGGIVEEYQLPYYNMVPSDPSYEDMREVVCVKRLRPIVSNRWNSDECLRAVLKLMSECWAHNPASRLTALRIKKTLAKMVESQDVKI

## NC(=O)c1ccc(-c2nc(-c3ccc4c(c3)OCO4)c(-c3ccccn3)[nH]2)cc1 [SB431542]
[1]
  inhibition of BMP type I receptor ALK3: does not inhibit
[2]
  inhibition of BMP type I receptor ALK2: does not inhibit
[3]
  inhibition of ALK7: inhibits
[4]
  inhibition of BMP type I receptor ALK6: does not inhibit
